Data published in patent US10207982B2, “Solid forms of desvenlafaxine” (ALPARIS, S.A. DE C.V., priority 2016, dated 2019).

Key:
[1] = Dissolution rate test in Wood apparatus, amorphous NSF; format: physicochemical; details: for Dissolution rate as compared to the neutral DSV: FIGS. 4A-4I, different pH values; for Dissolution Rate Constants: 150 mg tablets, 37° C., 50 rpm; for Difference in dissolution rate between dissolution media: pH 1.2 versus pH 6.8
Procedure: The dissolution rate tests were performed in aqueous media, in a Wood apparatus with 150 mg tablets at 37° C. and 50 rpm in different dissolution media, as shown in Tables 2 and 3.

[2] = Comparative dissolution profiles of five solid phases; format: physicochemical; set-up: Dissolution rate constant k: unit not given here; details: for Dissolution rate relative to the other shown phases: pH 1.2, 4.5 and 6.8; for Dissolution rate constant k: 37° C., 50 rpm
Procedure: FIG. 14. Dissolution profile in HCl solution (pH 1.2, 37° C., 50 rpm, n=3, ±SD) of the new crystalline solid phase of desvenlafaxine-3,4-dihydroxybenzoic acid (crystalline DSV:3,4-DHB), and comparison with the new amorphous solid phase of desvenlafaxine-3,4-dihydroxybenzoic acid (amorphous DSV:3,4-DHB), the new crystalline solid phase of desvenlafaxine-2,4-dihydroxybenzoic acid (crystalline DSV:2,4-DHB), desvenlafaxine (DSV), and desvenlafaxine succinate (DSV succinate). FIG. 15. Dissolution profile in acetate buffer (pH 4.5, 37° C., 50 rpm, n=3, ±SD) of the new crystalline solid phase of desvenlafaxine-3,4-dihidroxibenzoic acid (crystalline DSV:3,4-DHB), and comparison with the new amorphous solid phase of desvenlafaxine-3,4-dihydroxybenzoic acid (amorphous DSV:3,4-DHB), the new crystalline solid phase of desvenlafaxine-2,4-dihydroxybenzoic acid (crystalline DSV:2,4-DHB), desvenlafaxine (DSV), and desvenlafaxine succinate (DSV succinate). FIG. 16. Dissolution profile in phosphate buffer (pH 6.8, 37° C., 50 rpm, n=3, ±SD) of the new crystalline solid phase of desvenlafaxine-3,4-dihydroxybenzoic acid (crystalline DSV:3,4-DHB), and comparison with the new amorphous solid phase of desvenlafaxine-3,4-dihydroxybenzoic acid (amorphous DSV:3,4-DHB), the new crystalline solid phase of desvenlafaxine-2,4-dihydroxybenzoic acid (crystalline DSV:2,4-DHB), desvenlafaxine (DSV), and desvenlafaxine succinate (DSV succinate). A comparative test was carried out for the dissolution profiles at pH 1.2, 4.5 and 6.8 for the new crystalline phase DSV:3,4-DHB with respect to the amorphous NSF with the same co-former, the crystalline NSF with 2,4-dihydroxybenzoic acid, as well as desvenlafaxine base and the commercial salt (desvenlafaxine succinate).

[3] = Indicative physical stability test (X-ray powder diffraction); format: physicochemical; details: 40° C., 75% humidity, 30 days
Procedure: The amorphous NSF obtained from DSV:3-HB, DSV:3,4-DHB and DSV:3,4,5-THB were subjected to physical stability tests, wherein the NSF were subjected to temperatures of 45 and 50° C. in dry conditions (no humidity), and to 40° C., 75% humidity for 30 days.

[4] = Intrinsic dissolution of the crystalline NSF DSV:3,4-DHB; format: physicochemical
Procedure: Dissolution profiles were assessed for the crystalline NSF of DSV:3,4-DHB. The rate constant values are grouped in Table 6.

[5] = Thermogravimetric analysis (TGA/DSC) of crystalline NSF; format: physicochemical
Procedure: The compound was observed as stable until 190° C., the temperature at which decomposition starts to occur.
The crystalline NSF of DSV:2,4-DHB was also characterized by X-ray powder diffraction (see FIG. 10), as well as thermogravimetric analysis (TGA/DSC) (see FIG. 11).

[6] = format: physicochemical
Source text: Solubility tests could not be determined because the amorphous NSF obtained are very soluble and a large amount is required to saturate the solution.

Structure (SMILES)	Dissolution rate as compared to the neutral DSV [1]	Dissolution Rate Constants ([1]; pH 1.2) [mg/cm^2 · min]	Difference in dissolution rate between dissolution media [1]	Dissolution Rate Constants ([1]; pH 4.5) [mg/cm^2 · min]	Dissolution Rate Constants ([1]; pH 6.8) [mg/cm^2 · min]	Dissolution Rate Constants ([1]; water) [mg/cm^2 · min]	Quotient (kNSF/kDSV) ([2]; pH 1.2)	Dissolution rate constant k ([2]; pH 1.2, HCl solution)	Quotient (kNSF/kDSV) ([2]; pH 4.5)	Dissolution rate constant k ([2]; pH 4.5, acetate buffer)	Quotient (kNSF/kDSV) ([2]; pH 6.8)	Dissolution rate constant k ([2]; pH 6.8, phosphate buffer)	Physical stability [3]	Intrinsic dissolution rate constant k ([4]; pH 1.2) [mg/cm2 · min]	Intrinsic dissolution rate constant k ([4]; pH 4.5) [mg/cm2 · min]	Intrinsic dissolution rate constant k ([4]; pH 6.8) [mg/cm2 · min]	Stable until, temperature at which decomposition starts [5]	Solubility [6]	Dissolution rate relative to the other shown phases [2]
CN(C)CC(c1ccc(O)cc1)C1(O)CCCCC1.O=C(O)c1ccc(O)c(O)c1 (centres unmarked) [Amorphous DSV:3,4-DHB, desvenlafaxine-3,4-dihydroxybenzoic acid]	higher dissolution rate	4.4	lower or almost null difference	5.0	5.7	2.3	5.0	6.69	18.4	6.81	17.0	5.45	only possible to characterize						the higher dissolution rate
CN(C)CC(c1ccc(O)cc1)C1(O)CCCCC1.O=C(O)c1ccc(O)c(O)c1 (centres unmarked) [Crystalline DSV:3,4-DHB, 3,4-dihydroxybenzoate salt of anhydrous desvenlafaxine]							1.8	2.47	5.9	2.19	4.8	1.54		2.48	2.19	1.43	190 °C		
CN(C)CC(c1ccc(O)cc1)C1(O)CCCCC1.O=C(O)c1ccc(O)cc1O (centres unmarked) [Crystalline DSV:2,4-DHB, desvenlafaxine-2,4-dihydroxybenzoic acid]							0.79	1.07	0.94	0.35	0.71	0.23					about 150 °C		lower dissolution rate than the commercial salt (succinate) and any of the other shown phases

More lines, main results first:

Dissolution rate as compared to the neutral DSV [1]	Dissolution Rate Constants ([1]; pH 1.2) [mg/cm^2 · min]	Difference in dissolution rate between dissolution media [1]	Dissolution Rate Constants ([1]; pH 4.5) [mg/cm^2 · min]	Dissolution Rate Constants ([1]; pH 6.8) [mg/cm^2 · min]	Dissolution Rate Constants ([1]; water) [mg/cm^2 · min]	Quotient (kNSF/kDSV) ([2]; pH 1.2)	Dissolution rate constant k ([2]; pH 1.2, HCl solution)	Quotient (kNSF/kDSV) ([2]; pH 4.5)	Dissolution rate constant k ([2]; pH 4.5, acetate buffer)	Quotient (kNSF/kDSV) ([2]; pH 6.8)	Dissolution rate constant k ([2]; pH 6.8, phosphate buffer)	Physical stability [3]	Intrinsic dissolution rate constant k ([4]; pH 1.2) [mg/cm2 · min]	Intrinsic dissolution rate constant k ([4]; pH 4.5) [mg/cm2 · min]	Intrinsic dissolution rate constant k ([4]; pH 6.8) [mg/cm2 · min]	Stable until, temperature at which decomposition starts [5]	Solubility [6]	Structure (SMILES)	Dissolution rate relative to the other shown phases [2]
						2.1		6.9		10.0								CN(C)CC(c1ccc(O)cc1)C1(O)CCCCC1 (centres unmarked) [DSV-Succinate, desvenlafaxine succinate, reference compound]	
	5.8		6.1	5.4	3.8													CN(C)CC(c1ccc(O)cc1)C1(O)CCCCC1.O=C(O)c1cccc(O)c1 (centres unmarked) [DSV:3-HB, desvenlafaxine-3-hydroxybenzoic acid]	
higher dissolution rate	5.4		6.1	9.0	1.6												the solution did not become saturated	CN(C)CC(c1ccc(O)cc1)C1(O)CCCCC1.O=C(O)c1cc(O)c(O)c(O)c1 (centres unmarked) [DSV:3,4,5-THB, desvenlafaxine-3,4,5-trihydroxybenzoic acid]	
	6.9	14 times higher	1.2	0.5	0.0													CN(C)CC(c1ccc(O)cc1)C1(O)CCCCC1 (racemic) [DSV, (±)-1-[2-(dimethylamino)-1-(4-hydroxyphenyl)ethyl]cyclohexanol, reference compound]	
